How the values were obtained:
[1] = target: T1, His‐tagged ∆K280 TauRD protein (Homo sapiens, UniProt P10636, DEL597-597); assay: Thioflavin T binding assay for TauRD aggregation; assay type: biochemical; conditions: 10 µM, 2 days at 37°C; without compound 16,856 AU
T1 construct: containing residues 244–372 of the full‐length 4R2N Tau441; added start Met (ATG codon in forward primer) (N); made in house; host or cells: E. coli BL21(DE3)pLysS
Excerpt: Although known to reduce Aβ neurotoxicity (Lorenzo & Yankner, 1994), congo red was also reported as an agonist to drive aggregation within 293 cells expressing full‐length tau isoform htau40 (Bandyopadhyay, Li, Yin, & Kuret, 2007). Thus, we further examined the effects of congo red and tested chalcones on Tau misfolding using prokaryotic His‐tagged wild‐type (WT) and ∆K280 pET‐28a(+)‐TauRD proteins (Figure S3a) using thioflavin T binding assay and transmission electron microscopy (TEM) examination. […]
For thioflavin T binding assay, TauRD protein (20 μM in final 50 μl) was incubated with tested compounds (1−10 μM) in 150 mM NaCl and 20 mM Tris-HCl, pH 8.0, at 37°C for 48 h to form aggregates. […] Thioflavin T fluorescence intensity of samples was recorded by using a microplate reader (Bio-Tek FLx800), with excitation 420 nm and emission 485 nm filter combination.
Figure S3. TauRD-His proteins and Tau aggregation monitored by thioflavin T fluorescence and TEM. […] TauRD protein (20 μM in 50 μl buffer) was incubated with congo red, licochalcone A, or LM compounds (1−10 μM) at 37°C for 48 h, and aggregation was monitored by measuring thioflavin T fluorescence intensity (n = 3). p values: comparisons between 0 h and 48 h (^###: p < 0.001), wild type versus ΔK280 (^&&&: p < 0.001), or with and without compound addition (**: p < 0.01, ***: p < 0.001). […]

[2] = target: T1, His‐tagged ∆K280 TauRD protein; assay: TEM examination of ΔK280 TauRD aggregates; assay type: biochemical; conditions: 10 µM
Excerpt: For TauRD aggregation examination, the samples of formed fibrils without or with compound addition were placed on a 200-Mesh copper (holey-carbon) grid and viewed on a JEM-1230 transmission electron microscope (JEOL, Tokyo, Japan) at an accelerating voltage of 100 kV.
Figure S3. TauRD-His proteins and Tau aggregation monitored by thioflavin T fluorescence and TEM. (a) SDS-PAGE gel (left) and Western blot (right) of wild type (WT) and ΔK280 TauRD proteins from IPTG-induced bacterial cells. Wild type clone #3 and ΔK280 clone #2 (marked in red) were selected to prepare purified proteins for thioflavin T and TEM studies. (b) Thioflavin T binding assay for TauRD aggregation. TauRD protein (20 μM in 50 μl buffer) was incubated with congo red, licochalcone A, or LM compounds (1−10 μM) at 37°C for 48 h, and aggregation was monitored by measuring thioflavin T fluorescence intensity (n = 3). p values: comparisons between 0 h and 48 h (^###: p < 0.001), wild type versus ΔK280 (^&&&: p < 0.001), or with and without compound addition (**: p < 0.01, ***: p < 0.001). (one-way ANOVA with a post hoc Tukey test) (c) TEM examination of ΔK280 TauRD aggregation without or with congo red and LM-004 (10 μM) addition.

[3] = test system: CREB; assay: Western blot of CREB in ∆K280 TauRD‐DsRed SH‐SY5Y cells; assay type: cell-based, human; conditions: 1 µM; induced untreated 82%, uninduced 100%
Method: To knock down CREB expression in ∆K280 TauRD-DsRed SH-SY5Y cells, lentiviral short hairpin RNA (shRNA) targeting CREB (TRCN0000226466), NRF2 (TRCN0000007558), and a negative control scrambled (TRC2.Void) were obtained from National RNAi Core Facility, IMB/GRC, Academia Sinica, Taipei, Taiwan. On day 1, cells were plated on 6-well plates (for protein analysis) or 24-well plates (for neurite outgrowth analysis) in the presence of retinoic acid as described. On the second day, the cells were infected with lentivirus (multiplicity of infection: 3) in medium with polybrene (8 µg/mL; Sigma-Aldrich). […] On day 9, the cells were collected for NRF2, CREB, pCREB, and cleaved CASP3 protein analysis or analyzed for neurite outgrowth as described.
Total proteins from ∆K280 TauRD-DsRed SH-SY5Y cells were obtained using a RIPA buffer containing 50 mM Tris-HCl (pH8.0), 150 mM NaCl, 2 mM EDTA (pH8.0), 50 mM NaF, 0.1% SDS, 0.5% sodium deoxycholate, 1% NP40, and a protease inhibitor cocktail (Sigma-Aldrich). […] Protein concentrations were determined using a protein assay kit (Bio-Rad, Hercules, CA, USA), with albumin as a standard. […] Subsequently, immune complexes were detected using a horseradish peroxidase-conjugated goat anti-mouse or goat anti-rabbit IgG antibody (1:5000; GeneTex, Irvive, CA, USA) and a chemiluminescent substrate (Millipore).

T1 sequence (P10636 with tags, fused parts or gaps isoform P10636-8 DEL280-280): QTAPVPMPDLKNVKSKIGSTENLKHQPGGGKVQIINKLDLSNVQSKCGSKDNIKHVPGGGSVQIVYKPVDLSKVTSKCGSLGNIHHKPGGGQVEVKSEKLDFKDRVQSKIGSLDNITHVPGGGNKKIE

| Compound | ΔK280 TauRD aggregation (thioflavin T fluorescence) [1] | Tau aggregates by TEM [2] | CREB protein level [3] [%] |
| --- | --- | --- | --- |
| COc1ccc(C(=O)/C=C/c2cc(Br)ccc2O)cc1 [LM‐004] | 6,758 AU | reduced Tau aggregates | – |
| Nc1c(/N=N/c2ccc(-c3ccc(/N=N/c4cc(S(=O)(=O)O)c5ccccc5c4N)cc3)cc2)cc(S(=O)(=O)O)c2ccccc12 [congo red, reference compound] | 4,774 AU | reduced Tau aggregates | – |
| O=C(c1ccccc1)c1cc2c(O)cccc2oc1=O [LM‐031, 3‐benzoyl‐5‐hydroxychromen‐2‐one] | – | – | 122 |

— paper PMC7433010, “Exploration of multi‐target effects of 3‐benzoyl‐5‐hydroxychromen‐2‐one in Alzheimer’s disease cell and mouse models” (Aging Cell, 2020)
